Test results: patent US20230130102A1, “Na/K-ATPase LIGANDS AND USE THEREOF FOR TREATMENT OF CANCER” (Marshall University Research Corporation, priority 2019, published 2023)

Columns and labels:
α1 NKA/Src receptor = test: multi-step assay of MB5 derivatives (NKA and E-cadherin expression, 3D-spheroid invasion); assay type: cell-based; settings: for potency relative to MB5: ability to restore NKA and E-cadherin expression and 3D-spheroid invasion data
Excerpt: A multi-step assay was further designed to identify which compounds among the MB5 derivatives could be developed as an anti-cancer agent in terms of their potential to stop tumor invasion and growth. This multi-step assay included: (A) an ATPase activity assay- to confirm the binding of derivatives to NKA; (B) an assay to measure inhibition of ouabain-induced ERK activation and NKA endocytosis as well as basal Src/ERK/endocytotic activity in PY-17 cells (NKA/Src inverse agonist); (C) an assay to measure the ability to increase the expression of α1 NKA and E-cadherin level and decrease mesenchymal markers (ZEB1, SNAIL, vimentin) and Myc in cancer cells; (D) a 3D culture to test the anti-invasive and anti-growth potential of spheroids; and (E) an in vivo tumor xenograft model (by transplantation into NOD/SCOD mice). Upon analysis of the results of these experiments, it was believed that some of the MB5 derivative compounds show better or similar properties than MB5 as shown for certain of the compounds in FIGS. 6A-6G. Examples of experiments testing the derivatives are further provided for MIIRMB5 D1 (FIGS. 7A-7B), MIIRMB5 D3 (FIGS. 8A-8C), MIIRMB5 D4 (FIGS. 9A-9C), MIIRMB5 D5 (FIGS. 10A-10C), MIIRMB5 D6 (FIGS. 11A-11C), MIIRMB5 D7 (FIGS. 12A-12B), MIIRMB5 D13 (FIGS. 13A-13C), MIIRMB5 D14 (FIGS. 14A-14C), and MIIRMB5 D15 (FIGS. 15A-15C).

DU145 derived subclones = test: Western blot / immunostaining of EMT markers, Src/FAK activation and proliferation markers in DU145 derived subclones; assay type: cell-based, human; settings: subclone 2 cells, PP2 treatment (24 hours)
[1] = molecular target: T1, α1 NKA/Src receptor complex (Sus scrofa, UniProt P05024); test: ouabain-induced Src/ERK activation in LLC-PK1 cells (immunostaining, Western blot); assay type: cell-based, pig; settings: baseline
T1 construct: endogenous in cells; host or cells: LLC-PK1
Experimental: Western blot, Immunoprecipitation and Immunostaining. Cells were grown to 100% confluency and Western blot were performed as described before. Images were quantified with ImageJ software from NIH. Immunoprecipitation studies were performed as described before. α1 NKA immunostaining was performed by growing cells on sterilized coverslips in 6 well tissue culture plates and permeabilization/fixation with ice-cold methanol followed by blocking with 5% horse serum and 0.1% Triton X-100 in 1× Phosphate buffered saline (PBS) for 30 minutes. Coverslips were then stained with an anti-α1 NKA antibody (Millipore, Cat #05-369) at 1:100 dilution in 1% BSA (Bovine Serum Albumin) containing 1×PBS solution for overnight. Next day after three washes, coverslips were stained with Alexa Fluor 488 conjugated anti-mouse secondary antibody (Thermo-Fisher) for 1 hour, washed extensively and then imaged using a fluorescent microscope with GFP filter or confocal microscope (LEICA-DMIRE2). E-cadherin and occludin immunostaining was performed in a similar manner. Phospho-Src, phospho ERK1/2 immunostaining were performed as described before and images were taken with a LEICA DMIRE2 confocal microscope.
Characterization of MB5 activity on the NKA receptor function known as the NKA/Src binary receptor mechanism was conducted in a pig kidney epithelial cells (LLC-PK1)-based platform using immunostaining and Western blot analyses. […] The change of NKA conformation that occurs upon binding of agonists such as ouabain, results in the release and activation of the Src kinase domain from the “Naktide” site of NKA CD3, while the other interaction (constitutive) persists between NKA CD2 and the SH2 domain of Src. […] In LLC-PK1-derived cells with low NKA receptor constitutive activity due to substantial reduction (over 80%) of α1 NKA expression by siRNA (PY17 cells), increased basal Src and ERK activity is observed due to the abnormally high amount of Src kinase that remains in an active conformation. […]

YFP-tagged α1 NKA = molecular target: T2, YFP-tagged α1 NKA (Rattus norvegicus, UniProt P06685); test: ouabain-induced α1 NKA endocytosis in YFP-α1-TCN cells; assay type: cell-based; settings: TCN-YFP α1 cells
T2 construct: expressed in transfected cells; host or cells: YFP-α1-TCN cells
Experimental: It is appreciated that ouabain induces Src/ERK activation (increased protein phosphorylation) of LLC-PK1 cells by binding to α1 NKA and thereby initiates a signaling cascade which results in the endocytosis of the α1 NKA to terminate the signaling.
α1 NKA endocytosis assay. Endocytosis assay was performed as described before.
Characterization of MB5 activity on the NKA receptor function known as the NKA/Src binary receptor mechanism was conducted in a pig kidney epithelial cells (LLC-PK1)-based platform using immunostaining and Western blot analyses. […] The change of NKA conformation that occurs upon binding of agonists such as ouabain, results in the release and activation of the Src kinase domain from the “Naktide” site of NKA CD3, while the other interaction (constitutive) persists between NKA CD2 and the SH2 domain of Src.

## Nc1c(O)ccc2c(=O)c3cccc(O)c3oc12 [MIIRMB5 D4]
α1 NKA/Src receptor
  potency relative to MB5: about 10 fold

## O=S1(=O)c2cccc(O)c2Oc2c1ccc(O)c2O [MIIRMB5 D13]
α1 NKA/Src receptor; NKA and E-cadherin expression, 3D-spheroid invasion
  effective concentration / dosage: about 100 nM

## O=c1[nH]c2c(ccc3c(=O)c4cccc(O)c4oc32)o1 [MIIRMB5 D3]
α1 NKA/Src receptor
  potency relative to MB5: about 10 fold

## CC(C)(C)n1nc(-c2ccc(Cl)cc2)c2c(N)ncnc21 [PP2, reference compound]
DU145 derived subclones
  E-cadherin expression: increase in E-cadherin expression

## C[C@@H]1O[C@@H](O[C@H]2C[C@@H](O)[C@]3(CO)[C@H]4[C@H](O)C[C@]5(C)[C@@H](C6=CC(=O)OC6)CC[C@]5(O)[C@@H]4CC[C@]3(O)C2)[C@H](O)[C@H](O)[C@H]1O [ouabain, reference compound]
[1]
  ERK activation / NKA receptor function by the compound alone: activated ERK signal
YFP-tagged α1 NKA
  α1 NKA internalization (endocytosis) by the compound alone: induced α1 NKA internalization (endocytosis)
